# US20240279215A1 (Cytokinetics, Incorporated, priority 2022, published 2024)
# Target: human NAMPT (Homo sapiens (Human), UniProt P43490)
# Experiment: NMN fluorescence biochemical assay (human recombinant NAMPT enzyme assay)
# How it was run: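 NMN formed was detected by fluorescence (Ex/Em 355/460 nm) after acetophenone, KOH and formic acid derivatization. The cell-free reaction ran 60 min at ambient temperature with 6 nM human NAMPT, 150 μM nicotinamide, 20 μM PRPP, 2.5 mM ATP, pH 7.2 HEPES, and compound dose responses.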
# Chain of human NAMPT (P43490 whole entry): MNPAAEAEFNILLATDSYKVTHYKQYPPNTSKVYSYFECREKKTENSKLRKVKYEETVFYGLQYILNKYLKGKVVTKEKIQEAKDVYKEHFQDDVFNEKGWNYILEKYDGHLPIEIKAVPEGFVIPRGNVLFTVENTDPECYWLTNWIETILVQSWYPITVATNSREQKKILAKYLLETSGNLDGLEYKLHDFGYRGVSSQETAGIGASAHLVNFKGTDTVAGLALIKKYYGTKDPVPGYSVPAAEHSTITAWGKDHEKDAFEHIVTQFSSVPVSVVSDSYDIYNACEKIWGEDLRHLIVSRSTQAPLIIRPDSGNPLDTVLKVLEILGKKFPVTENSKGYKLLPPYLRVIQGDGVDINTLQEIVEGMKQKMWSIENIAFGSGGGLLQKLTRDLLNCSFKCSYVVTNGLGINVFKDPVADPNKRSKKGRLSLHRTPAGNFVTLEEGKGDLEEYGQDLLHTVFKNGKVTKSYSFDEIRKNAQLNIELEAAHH
AC1.4 Human,EC50,SMILES
0.04 µM,3.37 µM,"CC(=O)N1CC2(CC(c3ccc(NC(=O)OCc4cnco4)cc3F)C2)C1 [Compound 401, oxazol-5-ylmethyl (4-(2-acetyl-2-azaspiro[3.3]heptan-6-yl)-3-fluorophenyl)carbamate]"
0.10 µM,14.3 µM,"CS(=O)(=O)N1CC2(CC(Cc3ccc(NC(=O)OCc4cnco4)cc3F)C2)C1 [Compound 404, oxazol-5-ylmethyl (3-fluoro-4-((2-(methylsulfonyl)-2-azaspiro[3.3]heptan-6-yl)methyl)phenyl)carbamate]"
0.04 µM,19 µM,"CN(C)C(=O)N1CCC(c2ccc(NC(=O)OCc3cnco3)cc2F)CC1 [Compound 411, oxazol-5-ylmethyl (4-(1-(dimethylcarbamoyl)piperidin-4-yl)-3-fluorophenyl)carbamate]"
0.05 µM,48.3 µM,"CCC(=O)N1CCC(c2ccc(NC(=O)OCc3cnco3)cc2F)CC1 [Compound 412, oxazol-5-ylmethyl (3-fluoro-4-(1-propionylpiperidin-4-yl)phenyl)carbamate]"
0.10 µM,25.6 µM,"CC(=O)N1CCC(c2ccc(NC(=O)OCc3cnco3)cc2F)CC1 [Compound 413, oxazol-5-ylmethyl (4-(1-acetylpiperidin-4-yl)-3-fluorophenyl)carbamate]"
0.03 µM,26.2 µM,"CC(C)C(=O)N1CCC(c2ccc(NC(=O)OCc3cnco3)cc2F)CC1 [Compound 414, oxazol-5-ylmethyl (3-fluoro-4-(1-isobutyrylpiperidin-4-yl)phenyl)carbamate]"
0.18 µM,11.9 µM,"CS(=O)(=O)N1CCC(c2ccc(NC(=O)OCc3cnco3)cc2F)CC1 [Compound 415, oxazol-5-ylmethyl (3-fluoro-4-(1-(methylsulfonyl)piperidin-4-yl)phenyl)carbamate]"
0.07 µM,2.58 µM,"CN(C)S(=O)(=O)N1CCC(c2ccc(NC(=O)OCc3cnco3)cc2F)CC1 [Compound 416, oxazol-5-ylmethyl (4-(1-(N,N-dimethylsulfamoyl)piperidin-4-yl)-3-fluorophenyl)carbamate]"
0.18 µM,27 µM,"COC(=O)N1CCC(c2ccc(NC(=O)OCc3cnco3)cc2F)CC1 [Compound 417, methyl 4-(2-fluoro-4-(((oxazol-5-ylmethoxy)carbonyl)amino)phenyl)piperidine-1-carboxylate]"
0.12 µM,6.55 µM,"CS(=O)(=O)N1CC2CCC(C1)C2Cc1ccc(NC(=O)OCc2cnco2)cc1 (centres unmarked) [Compound 420, oxazol-5-ylmethyl (4-((3-(methylsulfonyl)-3-azabicyclo[3.2.1]octan-8-yl)methyl)phenyl)carbamate]"
0.16 µM,2.64 µM,"CCS(=O)(=O)N1CCC(c2ccc(NC(=O)OCc3cnco3)cc2)CC1 [Compound 427, oxazol-5-ylmethyl (4-(1-(ethylsulfonyl)piperidin-4-yl)phenyl)carbamate]"

# Second part, the compound before the results:
SMILES,AC1.4 Human,EC50
"O=C(Nc1ccc(CC2CC3CCC(C2)N3C(=O)N2CCCC2)cc1)OCc1cnco1 (centres unmarked) [Compound 391, oxazol-5-ylmethyl (4-((8-(pyrrolidine-1-carbonyl)-8-azabicyclo[3.2.1]octan-3-yl)methyl)phenyl)carbamate]",0.05 µM,5.5 µM
"O=C(Nc1ccc(CC2CC3CCC(C2)N3C(=O)N2CCC2)cc1)OCc1cnco1 (centres unmarked) [Compound 392, oxazol-5-ylmethyl (4-((8-(azetidine-1-carbonyl)-8-azabicyclo[3.2.1]octan-3-yl)methyl)phenyl)carbamate]",0.13 µM,6.9 µM
"O=C(Nc1ccc(CC2CC3CCC(C2)N3S(=O)(=O)N2CCC2)cc1)OCc1cnco1 (centres unmarked) [Compound 393, oxazol-5-ylmethyl (4-((8-(azetidin-1-ylsulfonyl)-8-azabicyclo[3.2.1]octan-3-yl)methyl)phenyl)carbamate]",0.13 µM,3.84 µM
"O=C(Nc1ccc(CC2CC3CCC(C2)N3S(=O)(=O)C2CCC2)cc1)OCc1cnco1 (centres unmarked) [Compound 394, oxazol-5-ylmethyl (4-((8-(cyclobutylsulfonyl)-8-azabicyclo[3.2.1]octan-3-yl)methyl)phenyl)carbamate]",0.19 µM,4.62 µM
"COC(=O)N1CC2(CC(Cc3ccc(NC(=O)OCc4cnco4)cc3F)C2)C1 [Compound 396, methyl 6-(2-fluoro-4-(((oxazol-5-ylmethoxy)carbonyl)amino)benzyl)-2-azaspiro[3.3]heptane-2-carboxylate]",0.11 µM,6.78 µM
"O=C(Nc1ccc(CC2CC3(C2)CN(C2COC2)C3)c(F)c1)OCc1cnco1 [Compound 397, oxazol-5-ylmethyl (3-fluoro-4-((2-(oxetan-3-yl)-2-azaspiro[3.3]heptan-6-yl)methyl)phenyl)carbamate]",0.98 µM,42.6 µM
"CN(C)C(=O)N1CC2(CC(Cc3ccc(NC(=O)OCc4cnco4)cc3F)C2)C1 [Compound 398, oxazol-5-ylmethyl (4-((2-(dimethylcarbamoyl)-2-azaspiro[3.3]heptan-6-yl)methyl)-3-fluorophenyl)carbamate]",0.08 µM,3.29 µM
"CCC(=O)N1CC2(CC(Cc3ccc(NC(=O)OCc4cnco4)cc3F)C2)C1 [Compound 402, oxazol-5-ylmethyl (3-fluoro-4-((2-propionyl-2-azaspiro[3.3]heptan-6-yl)methyl)phenyl)carbamate]",0.07 µM,12.4 µM
"CC(C)C(=O)N1CC2(CC(Cc3ccc(NC(=O)OCc4cnco4)cc3F)C2)C1 [Compound 403, oxazol-5-ylmethyl (3-fluoro-4-((2-isobutyryl-2-azaspiro[3.3]heptan-6-yl)methyl)phenyl)carbamate]",0.15 µM,7.47 µM
"CN(C)S(=O)(=O)N1C2CCC1CC(Cc1ccc(NC(=O)OCc3cnco3)cc1)C2 (centres unmarked) [Compound 405, oxazol-5-ylmethyl (4-((8-(N,N-dimethylsulfamoyl)-8-azabicyclo[3.2.1]octan-3-yl)methyl)phenyl)carbamate]",0.11 µM,3.42 µM
"CS(=O)(=O)N1C2CCC1CC(Cc1ccc(NC(=O)OCc3cnco3)cc1)C2 (centres unmarked) [Compound 406, oxazol-5-ylmethyl (4-((8-(methylsulfonyl)-8-azabicyclo[3.2.1]octan-3-yl)methyl)phenyl)carbamate]",0.13 µM,6.01 µM
"COC(=O)N1C2CCC1CC(Cc1ccc(NC(=O)OCc3cnco3)cc1)C2 (centres unmarked) [Compound 407, methyl 3-(4-(((oxazol-5-ylmethoxy)carbonyl)amino)benzyl)-8-azabicyclo[3.2.1]octane-8-carboxylate]",0.26 µM,8.55 µM
"CN(C)C(=O)N1C2CCC1CC(Cc1ccc(NC(=O)OCc3cnco3)cc1)C2 (centres unmarked) [Compound 408, oxazol-5-ylmethyl (4-((8-(dimethylcarbamoyl)-8-azabicyclo[3.2.1]octan-3-yl)methyl)phenyl)carbamate]",0.05 µM,3.44 µM
"CC(C)C(=O)N1C2CCC1CC(Cc1ccc(NC(=O)OCc3cnco3)cc1)C2 (centres unmarked) [Compound 409, oxazol-5-ylmethyl (4-((8-isobutyryl-8-azabicyclo[3.2.1]octan-3-yl)methyl)phenyl)carbamate]",0.20 µM,26.8 µM
"CC(=O)N1C2CCC1CC(Cc1ccc(NC(=O)OCc3cnco3)cc1)C2 (centres unmarked) [Compound 410, oxazol-5-ylmethyl (4-((8-acetyl-8-azabicyclo[3.2.1]octan-3-yl)methyl)phenyl)carbamate]",0.13 µM,4.19 µM
"CCS(=O)(=O)N1CCC(Cc2ccc(NC(=O)OCc3cnco3)cc2)CC12CC2 (centres unmarked) [Compound 418, oxazol-5-ylmethyl (4-((4-(ethylsulfonyl)-4-azaspiro[2.5]octan-7-yl)methyl)phenyl)carbamate]",0.18 µM,5.97 µM
"CS(=O)(=O)N1CCC(Cc2ccc(NC(=O)OCc3cnco3)cc2)CC12CC2 (centres unmarked) [Compound 419, oxazol-5-ylmethyl (4-((4-(methylsulfonyl)-4-azaspiro[2.5]octan-7-yl)methyl)phenyl)carbamate]",0.32 µM,12.7 µM
"COC(=O)N1CC2CCC(C1)C2Cc1ccc(NC(=O)OCc2cnco2)cc1 (centres unmarked) [Compound 421, methyl 8-(4-(((oxazol-5-ylmethoxy)carbonyl)amino)benzyl)-3-azabicyclo[3.2.1]octane-3-carboxylate]",0.13 µM,2.33 µM
"CN(C)C(=O)N1CC2CCC(C1)C2Cc1ccc(NC(=O)OCc2cnco2)cc1 (centres unmarked) [Compound 422, oxazol-5-ylmethyl (4-((3-(dimethylcarbamoyl)-3-azabicyclo[3.2.1]octan-8-yl)methyl)phenyl)carbamate]",0.07 µM,11.5 µM
"CC(C)C(=O)N1CC2CCC(C1)C2Cc1ccc(NC(=O)OCc2cnco2)cc1 (centres unmarked) [Compound 423, oxazol-5-ylmethyl (4-((3-isobutyryl-3-azabicyclo[3.2.1]octan-8-yl)methyl)phenyl)carbamate]",0.18 µM,15.4 µM
"CC(=O)N1CC2CCC(C1)C2Cc1ccc(NC(=O)OCc2cnco2)cc1 (centres unmarked) [Compound 424, oxazol-5-ylmethyl (4-((3-acetyl-3-azabicyclo[3.2.1]octan-8-yl)methyl)phenyl)carbamate]",0.04 µM,1.13 µM
"O=C(Nc1ccc(CC2C3CCC2CN(C2COC2)C3)cc1)OCc1cnco1 (centres unmarked) [Compound 425, oxazol-5-ylmethyl (4-((3-(oxetan-3-yl)-3-azabicyclo[3.2.1]octan-8-yl)methyl)phenyl)carbamate]",0.57 µM,52 µM
"O=C(Nc1ccc(CC2C3CCC2CNC3)cc1)OCc1cnco1 (centres unmarked) [Compound 426, oxazol-5-ylmethyl (4-((3-azabicyclo[3.2.1]octan-8-yl)methyl)phenyl)carbamate]",1.62 µM,32.4 µM
